Legend:
Type in all cases: cell-based
[1] = biological target: T1, human Nav1.5 channels stably expressed in HEK 293 cells (Homo sapiens, UniProt Q14524); experiment: IonWorks Quattro automated patch-clamp, sodium current, inactivated state block; settings: selectivity over Nav1.5
T1 construct: expressed in transfected cells
Experimental: (§1) Compounds were tested on human Nav1.7 and Nav1.5 channels stably expressed in HEK 293 cells. […] Cells were sealed on a planar substrate using the Population Patch Plate (PPC) technology. Electrical access was obtained using both nystatin and amphotericin. A double-pulse protocol was used for the determination of IC50 values for inactivated state block. Nav1.7 and Nav1.5 expressing cells were voltage clamped at −100 mV and −110 mV, respectively. A depolarizing prepulse to −10 mV (Nav1.7) or −30 mV (Nav1.5) for 1000 ms followed by a 10 ms repolarization to −100 mV (Nav1.7) or −110 mV (Nav1.5) was given to generate fractional channel inactivation of ˜50%, followed by a 10 ms test pulse to −10 mV (Nav1.7) or −30 mV (Nav1.5) to measure peak current in control conditions and after compound addition. The following recording solutions were used (mM). External: 150 NaCl, 2 CaCl2, 5 KCl, 1 Mg Cl2, 10 HEPES, 12 Dextrose; internal: 120 CsF, 30 CsCl, 10 EGTA, 5 HEPES, 5 NaF, 2 MgCl2.
(§2) For all electrophysiology experiments, offline analysis was used to correct for current rundown and to determine percent inhibition as a function of drug concentration. IC50 values were determined by fitting to the Hill equation.

[2] = biological target: T2, human Nav1.7 channels stably expressed in HEK 293 cells (Homo sapiens, UniProt Q15858); experiment: as above; settings: read-out: potency for the Nav 1.7 sodium ion channel (as measured by IonWorks)
T2 construct: expressed in transfected cells
Experimental: as §1, §2

[3] = biological target: T1, human Nav1.5 channels stably expressed in HEK 293 cells; experiment: PatchXpress 7000 automated patch-clamp, sodium current; settings: selectivity over Nav1.5
Summary of the method: (§3)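 IC50 values came from Hill-equation fits of rundown-corrected inhibition. PatchXpress recordings at 22° C held cells 20 mV negative to V0.5 inact and applied 10 Hz trains of 30 ms steps to −20 mV (Nav1.7) or an 8000 ms prepulse 7 mV positive to V0.5 inact. […]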

[4] = biological target: T2, human Nav1.7 channels stably expressed in HEK 293 cells; experiment: as above; settings: 22° C., read-out: potency for the Nav 1.7 sodium ion channel (as measured by PatchXpress)
Summary of the method: as §3

T1 sequence (Q14524 whole entry): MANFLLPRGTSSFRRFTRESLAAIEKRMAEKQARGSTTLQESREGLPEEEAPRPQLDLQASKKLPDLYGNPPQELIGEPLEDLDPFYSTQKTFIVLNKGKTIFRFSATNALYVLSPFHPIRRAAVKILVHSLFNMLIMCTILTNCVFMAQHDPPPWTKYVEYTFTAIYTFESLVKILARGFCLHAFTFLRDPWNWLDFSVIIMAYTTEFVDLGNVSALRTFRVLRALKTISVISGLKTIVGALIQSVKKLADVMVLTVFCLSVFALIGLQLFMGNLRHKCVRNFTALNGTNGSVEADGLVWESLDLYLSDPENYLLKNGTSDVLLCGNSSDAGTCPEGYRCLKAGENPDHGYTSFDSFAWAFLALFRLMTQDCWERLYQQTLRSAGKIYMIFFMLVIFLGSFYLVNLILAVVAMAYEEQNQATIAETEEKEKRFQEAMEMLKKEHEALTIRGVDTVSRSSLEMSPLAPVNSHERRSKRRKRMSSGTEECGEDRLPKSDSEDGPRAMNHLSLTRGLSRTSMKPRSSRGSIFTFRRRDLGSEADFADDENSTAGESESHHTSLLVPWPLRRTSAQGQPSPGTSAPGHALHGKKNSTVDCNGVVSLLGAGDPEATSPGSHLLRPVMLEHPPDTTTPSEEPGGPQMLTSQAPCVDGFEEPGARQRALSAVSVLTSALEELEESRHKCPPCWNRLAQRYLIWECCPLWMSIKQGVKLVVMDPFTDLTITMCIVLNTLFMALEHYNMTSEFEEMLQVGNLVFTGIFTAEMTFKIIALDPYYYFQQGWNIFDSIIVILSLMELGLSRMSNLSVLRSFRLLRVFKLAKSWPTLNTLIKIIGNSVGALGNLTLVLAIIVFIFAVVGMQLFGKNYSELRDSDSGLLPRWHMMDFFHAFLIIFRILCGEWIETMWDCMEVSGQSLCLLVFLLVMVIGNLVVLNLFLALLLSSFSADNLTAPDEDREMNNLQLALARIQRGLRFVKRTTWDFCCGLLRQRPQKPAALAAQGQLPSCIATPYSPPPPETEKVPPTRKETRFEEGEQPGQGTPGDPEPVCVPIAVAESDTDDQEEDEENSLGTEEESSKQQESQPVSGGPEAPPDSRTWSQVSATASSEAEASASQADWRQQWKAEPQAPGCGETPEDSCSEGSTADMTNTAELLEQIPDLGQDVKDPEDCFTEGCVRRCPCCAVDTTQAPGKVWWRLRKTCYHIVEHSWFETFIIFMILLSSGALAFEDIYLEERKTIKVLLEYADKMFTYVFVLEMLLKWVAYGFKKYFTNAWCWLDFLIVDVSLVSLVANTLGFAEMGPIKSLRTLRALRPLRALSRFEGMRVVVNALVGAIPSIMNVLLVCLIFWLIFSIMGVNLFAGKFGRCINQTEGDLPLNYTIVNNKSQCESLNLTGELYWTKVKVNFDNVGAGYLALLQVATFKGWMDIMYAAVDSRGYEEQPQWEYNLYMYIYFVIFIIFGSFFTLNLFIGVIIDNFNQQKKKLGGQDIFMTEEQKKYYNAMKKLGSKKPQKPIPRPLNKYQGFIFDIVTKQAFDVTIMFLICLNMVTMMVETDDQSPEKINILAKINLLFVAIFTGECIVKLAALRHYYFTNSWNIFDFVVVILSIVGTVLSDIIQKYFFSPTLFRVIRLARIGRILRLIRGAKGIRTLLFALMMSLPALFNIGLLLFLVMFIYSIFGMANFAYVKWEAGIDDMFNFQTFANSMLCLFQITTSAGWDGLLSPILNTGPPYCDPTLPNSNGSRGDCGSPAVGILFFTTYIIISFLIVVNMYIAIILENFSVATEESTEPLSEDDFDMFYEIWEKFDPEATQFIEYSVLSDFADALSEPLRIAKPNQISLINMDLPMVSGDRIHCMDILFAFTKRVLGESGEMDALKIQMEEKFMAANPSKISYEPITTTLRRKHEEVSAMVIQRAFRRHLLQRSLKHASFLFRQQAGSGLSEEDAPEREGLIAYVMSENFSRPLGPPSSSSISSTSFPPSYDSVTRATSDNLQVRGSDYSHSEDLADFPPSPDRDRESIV
T2 sequence (Q15858 whole entry): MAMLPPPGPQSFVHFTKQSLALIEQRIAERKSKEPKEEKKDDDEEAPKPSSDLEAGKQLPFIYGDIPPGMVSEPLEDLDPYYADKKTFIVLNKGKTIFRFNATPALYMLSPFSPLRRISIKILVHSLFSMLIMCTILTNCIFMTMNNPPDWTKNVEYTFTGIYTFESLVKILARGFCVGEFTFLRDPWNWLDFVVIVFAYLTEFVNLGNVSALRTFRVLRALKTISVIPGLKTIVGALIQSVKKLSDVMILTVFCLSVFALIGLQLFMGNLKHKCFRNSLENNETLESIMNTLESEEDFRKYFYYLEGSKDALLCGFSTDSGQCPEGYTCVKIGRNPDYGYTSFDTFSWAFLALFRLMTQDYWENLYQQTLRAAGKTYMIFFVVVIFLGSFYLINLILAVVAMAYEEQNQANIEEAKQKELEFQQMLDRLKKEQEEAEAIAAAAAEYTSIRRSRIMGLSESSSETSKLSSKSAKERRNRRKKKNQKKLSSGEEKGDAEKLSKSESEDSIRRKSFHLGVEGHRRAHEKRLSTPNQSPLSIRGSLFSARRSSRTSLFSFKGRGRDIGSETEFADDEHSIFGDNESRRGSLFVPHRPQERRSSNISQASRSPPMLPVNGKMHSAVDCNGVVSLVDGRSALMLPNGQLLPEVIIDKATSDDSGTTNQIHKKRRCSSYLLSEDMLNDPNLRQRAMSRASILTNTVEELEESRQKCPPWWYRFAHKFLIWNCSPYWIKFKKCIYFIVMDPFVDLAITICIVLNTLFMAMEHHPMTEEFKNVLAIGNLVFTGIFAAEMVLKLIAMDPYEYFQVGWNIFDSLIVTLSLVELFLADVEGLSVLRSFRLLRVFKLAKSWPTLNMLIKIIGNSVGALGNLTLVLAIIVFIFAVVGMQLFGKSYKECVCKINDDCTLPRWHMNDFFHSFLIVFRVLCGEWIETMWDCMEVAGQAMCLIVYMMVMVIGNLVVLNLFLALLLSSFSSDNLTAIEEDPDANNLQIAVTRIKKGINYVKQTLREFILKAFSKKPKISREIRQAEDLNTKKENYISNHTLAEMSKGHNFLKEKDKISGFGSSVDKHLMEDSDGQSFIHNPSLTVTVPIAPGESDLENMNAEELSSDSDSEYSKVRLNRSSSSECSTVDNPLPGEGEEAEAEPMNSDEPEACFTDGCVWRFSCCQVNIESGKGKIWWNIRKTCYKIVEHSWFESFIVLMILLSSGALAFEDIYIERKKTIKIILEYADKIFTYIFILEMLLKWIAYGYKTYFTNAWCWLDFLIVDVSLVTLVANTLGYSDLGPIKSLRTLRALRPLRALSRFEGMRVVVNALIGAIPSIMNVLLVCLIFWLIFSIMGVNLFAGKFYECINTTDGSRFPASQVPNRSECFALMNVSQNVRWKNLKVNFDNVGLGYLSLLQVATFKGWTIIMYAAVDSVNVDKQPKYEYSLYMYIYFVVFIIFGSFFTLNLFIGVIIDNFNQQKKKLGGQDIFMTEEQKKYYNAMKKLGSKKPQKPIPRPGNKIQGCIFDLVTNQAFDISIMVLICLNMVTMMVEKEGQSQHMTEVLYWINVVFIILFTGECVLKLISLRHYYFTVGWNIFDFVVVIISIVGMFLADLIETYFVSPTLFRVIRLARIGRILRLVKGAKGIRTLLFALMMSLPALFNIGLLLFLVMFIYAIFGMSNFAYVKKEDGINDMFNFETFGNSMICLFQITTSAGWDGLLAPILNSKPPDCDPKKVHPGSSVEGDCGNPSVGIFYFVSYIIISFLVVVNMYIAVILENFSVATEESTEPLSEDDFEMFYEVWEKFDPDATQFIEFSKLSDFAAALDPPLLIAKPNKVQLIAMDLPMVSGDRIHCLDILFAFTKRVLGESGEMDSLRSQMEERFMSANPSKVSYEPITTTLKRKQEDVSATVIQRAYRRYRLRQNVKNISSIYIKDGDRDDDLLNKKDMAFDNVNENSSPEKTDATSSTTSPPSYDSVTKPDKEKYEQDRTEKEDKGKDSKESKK

Row | SMILES | ratio of Nav 1.5:Nav 1.7 potency, determined by IonWorks measurement [1] | IC50 [2] [nM] | ratio of Nav 1.5:Nav 1.7 potency, determined by PatchXpress measurement [3] | IC50 [4] [nM]
1 | O=c1oc2cc(S(=O)(=O)Nc3ncns3)ccc2n1Cc1cccc2c1CN(CC1CC1)CC2 [Compound 6-4, 3-{[2-(cyclopropylmethyl)-1,2,3,4-tetrahydroisoquinolin-8-yl]methyl}-2-oxo-N-1,2,4-thiadiazol-5-yl-2,3-dihydro-1,3-benzoxazole-6-sulfonamide] | 54 | 464 | 37 | 626
2 | CS(=O)(=O)N1CCc2cccc(Cn3c(=O)oc4cc(S(=O)(=O)Nc5ncns5)ccc43)c2C1 [Compound 8-4, 3-{[2-(Methylsulfonyl)-1,2,3,4-tetrahydroisoquinolin-8-yl]methyl}-2-oxo-N-(1,2,4-thiadiazol-5-yl)-2,3-dihydro-1,3-benzoxazole-6-sulfonamide] | 20 | 526 | > 1180 | 254
3 | CC(=O)N1CCc2cccc(Cn3c(=O)oc4cc(S(=O)(=O)Nc5ncns5)ccc43)c2C1 [Compound 9-1, 3-[(2-Acetyl-1,2,3,4-tetrahydroisoquinolin-8-yl)methyl]-2-oxo-N-(1,2,4-thiadiazol-5-yl)-2,3-dihydro-1,3-benzoxazole-6-sulfonamide] | 35 | 638 | > 57 | 530
4 | O=C(C1CC1)N1CCc2cccc(Cn3c(=O)oc4cc(S(=O)(=O)Nc5ncns5)ccc43)c2C1 [Compound 10-1, 3-{[2-(Cyclopropylcarbonyl)-1,2,3,4-tetrahydroisoquinolin-8-yl]methyl}-2-oxo-N-1,2,4-thiadiazol-5-yl-2,3-dihydro-1,3-benzoxazole-6-sulfonamide] | > 50 | 666 | 14 | 598
5 | O=c1oc2cc(S(=O)(=O)Nc3ncns3)c(F)cc2n1Cc1cccc2c1CNCC2 [Compound 11-5, 5-Fluoro-2-oxo-3-(1,2,3,4-tetrahydroisoquinolin-8-ylmethyl)-N-(1,2,4-thiadiazol-5-yl)-2,3-dihydro-1,3-benzoxazole-6-sulfonamide] | 182 | 101 | 139 | 69
6 | C[C@@H](c1cccc2c1CNCC2)n1c(=O)oc2cc(S(=O)(=O)Nc3ncns3)c(F)cc21 [Compound 11-6, 5-fluoro-2-oxo-3-[(1S)-1-(1,2,3,4-tetrahydroisoquinolin-8-yl)ethyl]-N-1,2,4-thiadiazol-5-yl-2,3-dihydro-1,3-benzoxazole-6-sulfonamide] | 57 | 576 | > 93 | 322
7 | NC/C=C/c1ccccc1Cn1c(=O)oc2cc(S(=O)(=O)Nc3ncns3)c(F)cc21 [Compound 12-3, 3-{2-[(1E)-3-Aminoprop-1-en-1-yl]benzyl}-5-fluoro-2-oxo-N-(1,2,4-thiadiazol-5-yl)-2,3-dihydro-1,3-benzoxazole-6-sulfonamide] | 6084 | 5 | 1096 | 27
8 | C[C@H](c1cccc2c1CNCC2)n1c(=O)oc2cc(S(=O)(=O)Nc3ncns3)c(F)cc21 [Compound 13-2, 5-Fluoro-2-oxo-3-[(1R)-1-(1,2,3,4-tetrahydroisoquinolin-8-yl)ethyl]-N-(1,2,4-thiadiazol-5-yl)-2,3-dihydro-1,3-benzoxazole-6-sulfonamide] | 2604 | 4 | 357 | 26
9 | C[C@H](c1ccccc1)n1c(=O)oc2cc(S(=O)(=O)Nc3ncns3)c(F)cc21 [Compound 13-3, 5-fluoro-2-oxo-3-[(1R)-1-phenylethyl]-N-1,2,4-thiadiazol-5-yl-2,3-dihydro-1,3-benzoxazole-6-sulfonamide] | 418 | 21 | 162 | 42
10 | C[C@@H](c1ccccc1)n1c(=O)oc2cc(S(=O)(=O)Nc3ncns3)c(F)cc21 [Compound 13-4, 5-fluoro-2-oxo-3-[(1S)-1-phenylethyl]-N-1,2,4-thiadiazol-5-yl-2,3-dihydro-1,3-benzoxazole-6-sulfonamide] | 78 | 157 | 27 | 167
11 | O=c1oc2cc(S(=O)(=O)Nc3ncns3)c(F)cc2n1C(c1ccccc1)C1CC1 (centres unmarked) [Compound 13-5, 3-[cyclopropyl(phenyl)methyl]-5-fluoro-2-oxo-N-1,2,4-thiadiazol-5-yl-2,3-dihydro-1,3-benzoxazole-6-sulfonamide] | > 300 | 110 | > 30 | 145

From US9273040B2 (Merck Sharp & Dohme Corp., priority 2011, dated 2016)
